One assay has as its target CDK2 (Homo sapiens, UniProt P24941). The assay can be described thus: CDK2 kinase activity, luminescence-based assay that detects ADP production. Format: biochemical. The source says:
Among other things, two distinct clusters of Helicons that bound both CDK2 and CDK2 in complex with its partner CyclinE1, but not to CDK1 or CDK1 in complex with its partner CyclinA2 (C51 and C52). […] In some embodiments, one or more (e.g., 1, 2 or 3) or all residues to the N-terminus side of X^4 are absent. In some embodiments, one or more (e.g., 1, 2 or 3) or all residues to the C-terminus side of X^11 are absent.

The target in assay [1] is T1, PD-L1 (Homo sapiens, UniProt Q9NZQ7). Particulars: analytical SEC and TR-FRET experiments. Background: In TR-FRET formats the signal depends on donor and acceptor labels being close together.
Assay [2] deals with T1, PD-L1. Particulars: SPR. A general note: Surface plasmon resonance follows binding to a sensor surface in real time, without labels.
Assay [3] deals with T1, PD-L1. Particulars: TR-FRET.
The target in another assay is PD-L1:PD-1 binding (Homo sapiens, UniProt Q9NZQ7). As to conditions: competition ELISA, n=2. For orientation: In an ELISA, binding on a coated surface is turned into a signal by an enzyme label.
For assay [4], the target named is T2, beta-catenin (Homo sapiens, UniProt P35222).
T2 construct: 10 nM full-length β-catenin (Uniprot ID P35222); 6×His-thrombin-T7-TEV (N); made in house; host or cells: E. coli BL21 (DE3) pLysS
The assay can be described thus: Competition FP, beta-catenin vs Axin-derived Helicon probe. In kind it is binding.

In assay [5] the target is T3, beta-catenin (Homo sapiens, UniProt P35222).
T3 construct: made in house; host or cells: E. coli BL21 (DE3) pLysS
T3 sequence (P35222 134-665): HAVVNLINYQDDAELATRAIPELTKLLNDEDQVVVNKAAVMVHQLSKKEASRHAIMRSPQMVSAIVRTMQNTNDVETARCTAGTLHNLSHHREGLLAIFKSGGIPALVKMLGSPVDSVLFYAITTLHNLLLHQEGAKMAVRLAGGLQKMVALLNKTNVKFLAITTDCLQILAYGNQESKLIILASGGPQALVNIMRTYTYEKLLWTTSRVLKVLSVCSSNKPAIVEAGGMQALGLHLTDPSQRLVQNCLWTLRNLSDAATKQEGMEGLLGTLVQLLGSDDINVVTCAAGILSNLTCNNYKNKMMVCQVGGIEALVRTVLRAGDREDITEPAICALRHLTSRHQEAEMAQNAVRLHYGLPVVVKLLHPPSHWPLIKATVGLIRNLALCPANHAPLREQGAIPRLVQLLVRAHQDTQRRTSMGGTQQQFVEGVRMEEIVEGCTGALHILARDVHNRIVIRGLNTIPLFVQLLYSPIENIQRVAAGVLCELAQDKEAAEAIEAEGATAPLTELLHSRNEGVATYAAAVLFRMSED
The assay can be described thus: SPR binding of Helicons to immobilized beta-catenin.

In assay [6] the target is T2, beta-catenin. The assay can be described thus: Competition FP, beta-catenin vs beta-catenin-binding domain of TCF4. As to conditions: read-out: IC50 (μM, TCF).
The next assay addresses T4, VHL-ELOBC (Homo sapiens, UniProt P40337).
T4 construct: VHL (Uniprot ID: P40337, residues 54-213) with an N-terminal 6×His-TEV tag; 6×His-TEV (N); made in house; host or cells: E. coli BL21 (DE3)
The assay can be described thus: Competition FP with VHL-binding fluorescent probe HXC78. Particulars: n=3.

Where two headings read alike, the source gives them in different places.

Ac-WWVCAIAAIECSD-NH2 [FP33215]: at CDK2, the “inhibition of the kinase activity of CDK2” value is recorded as “neither FP19711 nor FP33215 appeared to inhibit”.

Take `Cc1cc(CN[C@H](CO)C(=O)O)c(OCc2cccc(C#N)c2)cc1OCc1cccc(-c2ccc3c(c2)OCCO3)c1C` [BMS-1001]: on PD-L1 [1], the PD-L1 dimerization result was “Evidence of PD-L1 dimerization”. At PD-L1 [2], the “competition with PD-1 for binding to PD-L1” value is “compete more potently”. For the same compound, the “induction of PD-L1 dimerization in solution” value on PD-L1 [3] is given as “induce PD-L1 dimerization”. Further, the “inhibition of PD-L1:PD-1 binding” value at PD-L1:PD-1 binding was “inhibits PD-L1:PD-1 binding”.

Take `CC[C@H](C)[C@@H]1NC(=O)[C@H](C)NC(=O)[C@H](C)NC(=O)[C@H](Cc2c[nH]c3ccccc23)NC(=O)[C@H](CCC(=O)O)NC(=O)[C@@H](NC(=O)[C@H](CC(C)C)NC(=O)[C@H](CCC(=O)O)NC(=O)[C@H](CO)NC(=O)[C@H](C)NC(=O)[C@@H]2CCCN2C(=O)[C@H](CC(=O)O)NC(C)=O)CSCC(=O)Nc2ccc(cc2)NC(=O)CSC[C@@H](C(=O)N[C@@H](CC(=O)O)C(=O)N[C@@H](CC(C)C)C(=O)N[C@H](C(N)=O)C(C)C)NC(=O)[C@H](Cc2c[nH]cn2)NC1=O` [FP01822]: at beta-catenin [4], the IC50 (usually the concentration at which inhibition is half-maximal) is 3.7 µM. In addition, the Kd (as a rule, the equilibrium constant for the complex coming apart) on beta-catenin [5] stood at 3 µM.

As for `CC[C@H](C)[C@H](NC(=O)[C@H](CS)NC(=O)[C@H](CC(=O)O)NC(=O)[C@H](CC(=O)O)NC(=O)[C@H](CCC(N)=O)NC(=O)[C@H](C)NC(=O)[C@@H]1CCCN1C(=O)[C@H](CC(=O)O)NC(C)=O)C(=O)N[C@@H](CC(C)C)C(=O)N[C@@H](C)C(=O)N[C@@H](C)C(=O)N[C@@H](Cc1c[nH]cn1)C(=O)N[C@H](C(=O)N[C@@H](CS)C(=O)N[C@@H](C)C(=O)N[C@@H](CC(C)C)C(=O)N[C@@H](Cc1c[nH]c2ccccc12)C(N)=O)C(C)C` [FP49433], the IC50 at beta-catenin [6] was over 10 µM. The Kd on beta-catenin [5] (SPR, beta-catenin, read-out: KD (μM, SPR)) is over 10 µM.

On to `Cc1ncsc1-c1ccc(CNC(=O)[C@@H]2C[C@@H](O)CN2C(=O)[C@@H](NC(=O)C2(C#N)CC2)C(C)(C)C)cc1` [VH298, (2S,4R)-1-((S)-2-(1-Cyanocyclopropanecarboxamido)-3,3-dimethylbutanoyl)-4-hydroxy-N-(4-(4-methylthiazol-5-yl)benzyl)pyrrolidine-2-carboxamide], for which the “competition with HXC78 for binding VHL-ELOBC” value at VHL-ELOBC is “potently competes”.

Source of the values: patent US20240376151A1, “STAPLED PEPTIDES AND METHODS THEREOF” (FOG PHARMACEUTICALS, INC., priority 2022, published 2024).
